Assay results reported in patent publication US4056674A, “Derivatives of 3-deazaguanine” (priority 1975, dated 1977).
In brackets after ≈: the same amount, converted by molar mass. Several values for one entry are separate records, joined by “and”; a condition that tells them apart may be missing. Equal entries are not always repeated.

Columns and labels:
adenovirus, type 3 = test: In vitro antiviral, inhibition of virus-induced cytopathogenic effect (CPE), AV/3; format: cell-based; conditions: KB or RK-13 cells, VR >0.5 significant, <0.5 slight antiviral activity
[1] = tested on: herpes simplex virus, type 1; test: In vitro antiviral, inhibition of virus-induced CPE, HSV/1; format: cell-based; conditions: KB or RK-13 cells, VR >0.5 significant, <0.5 slight antiviral activity
vaccinia virus = format: cell-based; conditions: VV; KB or RK-13 cells; VR >0.5 significant, <0.5 slight antiviral activity
human cytomegalovirus = test: In vitro antiviral, inhibition of virus-induced CPE, HCMV; format: cell-based; conditions: KB or RK-13 cells, VR >0.5 significant, <0.5 slight antiviral activity
murine cytomegalovirus = test: In vitro antiviral, inhibition of virus-induced CPE, MCMV; format: cell-based; conditions: KB or RK-13 cells, VR >0.5 significant, <0.5 slight antiviral activity
Experimental: (§1) In this example, compounds 3, 4, 13, 16, 20, 22, 29 and 30 were tested to determine their in vitro antiviral efficacy, using the inhibition virus-induced cytopathogenic effect (CPE) method of Sidwell, et al. (Applied Microbiology 22:797-801, 1971). Briefly, the CPE procedure includes the suspension of the antiviral agent in a cell culture medium consisting of vitamins, amino acids, serum, buffer, penicillin, streptomycin and indicator dye in water. The virus suspended in the cell culture medium was added to an established monolayer of KB cells or RK-13 cells, and an equal volume of the antiviral agent was then added within 15 minutes. The infected treated cells were graded following microscopic examination. Controls for each experiment include cell controls cells and cell culture medium only), virus controls (cell and virus cell culture medium) and toxicity controls (cells and chemical and cell culture medium).
(§2) The virus rating (VR) system of Sidwell et al., described in Applied Microbiology, supra, was used to evaluate the degree of significance of CPE inhibition.

pseudorabies virus = format: cell-based; conditions: PRV; KB or RK-13 cells; VR >0.5 significant, <0.5 slight antiviral activity
myxoma virus = test: In vitro antiviral, inhibition of virus-induced CPE, MV; format: cell-based; conditions: KB or RK-13 cells, VR >0.5 significant, <0.5 slight antiviral activity
Experimental: as §1, §2

[2] = tested on: Parainfluenza virus, type 3; test: In vitro antiviral, inhibition of virus-induced CPE, PIV/3; format: cell-based; conditions: PIV/3; KB or RK-13 cells; VR >0.5 significant, <0.5 slight antiviral activity
[3] = tested on: parainfluenza virus, type 1; test: In vitro antiviral, inhibition of virus-induced CPE, PIV/1; format: cell-based; conditions: PIV/1; KB or RK-13 cells; VR >0.5 significant, <0.5 slight antiviral activity
rhinovirus, type 1A = test: In vitro antiviral, inhibition of virus-induced CPE, RV/1A; format: cell-based; conditions: KB or RK-13 cells, VR >0.5 significant, <0.5 slight antiviral activity
RV/2: rhinovirus, type 1 = test: In vitro antiviral, inhibition of virus-induced CPE, RV/2; format: cell-based; conditions: KB or RK-13 cells, VR >0.5 significant, <0.5 slight antiviral activity
rhinovirus, type 8 = test: In vitro antiviral, inhibition of virus-induced CPE, RV/8; format: cell-based; conditions: KB or RK-13 cells, VR >0.5 significant, <0.5 slight antiviral activity
rhinovirus, type 13 = test: In vitro antiviral, inhibition of virus-induced CPE, RV/13; format: cell-based; conditions: KB or RK-13 cells, VR >0.5 significant, <0.5 slight antiviral activity
rhinovirus, type 30 = test: In vitro antiviral, inhibition of virus-induced CPE, RV/30; format: cell-based; conditions: KB or RK-13 cells, VR >0.5 significant, <0.5 slight antiviral activity
Experimental: as §1, §2

rhinovirus, type 56 = test: In vitro antiviral, inhibition of virus-induced CPE, RV/56; format: cell-based; conditions: KB or RK-13 cells, VR >0.5 significant, <0.5 slight antiviral activity
influenza virus, type Ao = test: In vitro antiviral, inhibition of virus-induced CPE, IV/Ao; format: cell-based; conditions: KB or RK-13 cells, VR >0.5 significant, <0.5 slight antiviral activity
[4] = tested on: vesicular stomatitis virus; format: cell-based; conditions: VSV; KB or RK-13 cells; VR >0.5 significant, <0.5 slight antiviral activity
Escherichis = test: In vitro antibacterial, broth dilution assay, Escherichia; format: cell-based; conditions: 24 h, read-out: Average MIC
Experimental: (§3) In this example compounds 7 and 30 were tested to determine their in vitro antibacterial activity. Clinical isolates of pathogens were used for this example. In vitro sensitivity of these organisms were quantitatively determined by broth dilution assay. Serial dilutions were prepared in chemically defined medium in a range from 100 to 0.01 μg/ml. The minimal Inhibitory Concentration (MIC) was recorded as the highest dilution of compound which prevented visible growth of the pathogen following 24 hr incubation at 35°.

Proteus = test: In vitro antibacterial, broth dilution assay, Proteus; format: cell-based; conditions: 24 h, read-out: Average MIC
Experimental: as §3

Hela cells = test: Cytotoxicity to Hela cells in tissue culture; format: cell-based
L1210 cells [5] = test: Cytotoxicity to L1210 cells in tissue culture; format: cell-based
Experimental: (§4) In this example compound 30 was tested for antitumor activity in mice. […] A 10^-5 M concentration of compound 30 caused 50% inhibition of the incorporation of ^3 H-thymidine and ^3 H-uridine into the acidinsoluble fraction of L1210 cells in tissue culture. […] Ara C (cytosine arabinoside) was included as a standard.

L1210 cells [6] = test: Inhibition of incorporation of 3H-thymidine into the acid-insoluble fraction of L1210 cells; format: cell-based; conditions: Mus musculus; 10^-5 M; L1210 cells in tissue culture
Experimental: as §4

L1210 cells [7] = test: Inhibition of incorporation of 3H-uridine into the acid-insoluble fraction of L1210 cells; format: cell-based; conditions: Mus musculus; 10^-5 M; L1210 cells in tissue culture
Experimental: as §4

leukemia L1210 = test: Activity against leukemia L1210 in BDF1 female mice; format: in vivo; conditions: qd [1-9]
Experimental: as §4
All animals were inoculated (i.p) with 10^5 leukemic cells. Treatment
was started 24 hours after transplant. Figures in parenthesis denote 21

LD10 = test: LD10; parameters: species or system mice; conditions: mouse, in vivo
adenocarcinoma 755 = test: Inhibition of growth of subcutaneous implants of adenocarcinoma 755 in C57 Blk/6 female mice; format: in vivo; conditions: 40 mg/kg i.p. (qd, 1-7)

## Nc1cc2nc[nH]c2c(=O)[nH]1 [Compound 30, 6-Amino-imidazo[4,5c]pyridin-4(5H)one]
adenovirus, type 3
  Virus rating (VR): 1.1
[1]
  Virus rating (VR): 1.3
Vaccinia virus
  Virus rating (VR): 1.2
Human cytomegalovirus
  Virus rating (VR): 0.3
Murine cytomegalovirus
  Virus rating (VR): 0.6
Pseudorabies virus
  Virus rating (VR): 0.3
Myxoma virus
  Virus rating (VR): 0.9
[2]
  Virus rating (VR): 1.0
[3]
  Virus rating (VR): 1.0
rhinovirus, type 1A
  Virus rating (VR): 0.3
RV/2: rhinovirus, type 1
  Virus rating (VR): 1.3
rhinovirus, type 8
  Virus rating (VR): 1.3
rhinovirus, type 13
  Virus rating (VR): 1.2
rhinovirus, type 30
  Virus rating (VR): 0.3
rhinovirus, type 56
  Virus rating (VR): 1.1
Influenza virus, type Ao
  Virus rating (VR): 0.5
[4]
  Virus rating (VR): 1.3
Escherichis
  MIC: 6 µg/mL (≈ 40 µM)
Proteus
  MIC: 25 µg/mL (≈ 167 µM)
Hela cells
  cytotoxic to Hela cells: cytotoxic
L1210 cells [5]
  cytotoxic to L1210 cells: cytotoxic
L1210 cells [6]
  inhibition at 10 µM: 50%
L1210 cells [7]
  inhibition at 10 µM: 50%
Leukemia L1210; 20 mg/kg i.p.
  21 day survivors: 0/6
  Average Mean Survival: 10.83 days
  T/C: 1.32
  increased the life span: 32%
  ΔWt.: +2.0 g
Leukemia L1210; 40 mg/kg i.p.
  21 day survivors: 1/6
  Average Mean Survival: 12.00 days
  T/C: 1.43
  increased the life span: 43%
  ΔWt.: +0.4 g
Leukemia L1210; 80 mg/kg i.p.
  21 day survivors: 0/6
  Average Mean Survival: 13.33 days
  T/C: 1.63
  increased the life span: 63%
  ΔWt.: +1.7 g
LD10
  LD10: 500 mg/kg
Adenocarcinoma 755
  inhibition of the growth of subcutaneous implants: 75% and 93%
